Results from PMC10671498, “Antiproliferative and Cytotoxic Properties of Propynoyl Betulin Derivatives against Human Ovarian Cancer Cells: In Vitro Studies” (International Journal of Molecular Sciences, 2023).
Like-named read-outs stand apart in the source and are kept apart here.

What was measured:
[1] = system: SK-OV-3 cells; test: DNA fragmentation assay (Cell Death Detection ELISA, cytoplasmic fraction), SK-OV-3; type: cell-based, human; conditions: SK-OV-3, 24 h, 3, 10, 30 µM
Procedure: (§1) Fragmentation of genomic DNA was determined by means of the Cell Death Detection ELISAPLUS kit (Roche, Basel, Switzerland). This method rests on the immunoenzymatic detection of DNA–histone complexes in the cytoplasmic cell fraction or cell culture supernatants. Cells were plated and cultured in 96-well plates (Greiner Bio-One) at the initial density of 5 × 10^3 cells per well in 100 µL of culture medium. Cells were allowed to attach and grow for 1 day prior to the addition of test reagents. Then, the media were replaced with the working solutions (3 µM, 10 µM, 30 µM), and cells were exposed to compounds 2–6 for 24 h. In some cases, 5 µM cyclosporin A (CsA, an inhibitor of the mitochondrial permeability transition) was added to the cells 30 min before treatment with the betulin derivative. Subsequently, cells were incubated concomitantly with both compounds. After a 24 h incubation period, plates were centrifuged (200× g; 10 min), media were removed, and cells were lysed for 30 min at room temperature. At the next step, the lysates were again spun (200× g; 10 min), and 20 µL of supernatants (cytoplasmic fractions) was moved to the new 96-well streptavidin-coated plate. In one experiment, the presence of mono- and oligonucleosomes was determined in 20 µL samples of centrifuged culture supernatants (media) to detect the permeability of plasma membrane (considered as an indicator of cell necrosis). Then, the sandwich ELISA assay was fulfilled according to the manufacturer’s protocol. Absorbance was measured at 405 nm and 490 nm (reference wavelength), and the enrichment factor of the cytoplasmic (or supernatant) fraction in mono- and oligonucleosomes was calculated according to the formula: EF = absorbance of sample cells/absorbance of control cells.
(§2) A high EF index in the cytoplasmic fraction (resulting from DNA fragmentation while maintaining the tightness of cell membranes) is a typical indicator of the relatively early stage of apoptosis.

[2] = system: OVCAR-3 cells; test: SRB cell proliferation assay, OVCAR-3; type: cell-based, human; conditions: for IC50: Homo sapiens; for concentration at which antiproliferative activity (decrease in the number of cells) was evident: OVCAR-3, SRB assay, 0.1–30 µM
Procedure: OVCAR-3 cells (ATCC No. HTB-161™) were cultured in RPMI-1640 medium containing HEPES buffer (2.383 g/L), sodium bicarbonate (1.5 g/L), sodium pyruvate (0.11 g/L) supplemented with 20% fetal bovine serum, 10 µg/mL bovine insulin, 100 U/mL penicillin, and 100 μg/mL streptomycin (all from Sigma Aldrich).
(§3) Betulin 1 and its derivatives were dissolved in dimethyl sulfoxide (DMSO; Sigma Aldrich) as a 15 mM stock solution. Working solutions were prepared through the dilution of stock solutions with culture medium. The final DMSO concentration in culture media was adjusted to 0.2%. The effect of tested compounds on the proliferation of SK-OV-3 and OVCAR-3 cells was measured using the In Vitro Toxicology Assay Kit, Sulforhodamine B based (Sigma Aldrich). Cells were seeded in 96-well plates (Greiner Bio-One, Kremsmünster, Austria) at an initial density of 3 × 10^3 cells per well in 200 µL of culture medium. After 24 h of incubation, betulin 1 and its derivatives at a concentration range of 0.1 μM to 30 μM were added to the wells. Control cultures were treated with vehicle alone (0.2% DMSO). The incubation periods for cells with test compounds were 1 day, 3 days, and 5 days. After appropriate incubation periods, culture media were removed, and cells were fixed in 10% trichloroacetic acid solution for 60 min at 4 °C. After fixation, the TCA solution was removed, and the plates were washed three times with deionized water (300 μL/well) and dried. At the next step, cells were stained with 0.4% sulforhodamine B for 30 min. The excess dye was removed by washing three times with 1% (vol/vol) acetic acid. The protein-bound dye was dissolved in 200 μL 10 mM Tris base solution. Absorbance was measured at 570 nm and 690 nm (reference wavelength) using the MRX Revelation plate reader (Dynex Technologies, Chantilly, VA, USA).
(§4) GraphPad Prism 10.0.2 (GraphPad Software Inc., San Diego, CA, USA) software was used for calculations and the statistical analysis of the IC50 values (Table 1). IC50 was determined by using the “nonlinear regression” mode, and the “log(inhibitor) vs. normalised response—Variable slope” equation was chosen in GraphPad Prism software for calculations. The obtained data were normalized to run from 100% down to 0%, and logarithms of concentration were used. Graphs (Figure 2, Figure 3, Figure 4, Figure 5 and Figure 8, and Supplementary Figure S1) were also prepared using this software. In the case of the lack of normal distribution or homogeneity of variances, the remaining results were analyzed using a non-parametric Kruskal–Wallis test with multiple comparisons. Post hoc analysis was performed with the non-parametric equivalent of Tukey’s test. A p value of <0.05 was considered statistically significant. Otherwise, a one-way ANOVA followed by a Tukey’s post hoc test was applied. t-tests was used to perform pairwise comparisons between group means. Analysis was performed using Statistica 13.1 software (StatSoft, Tulsa, OK, USA).

[3] = system: SK-OV-3 cells; test: SRB cell proliferation assay, SK-OV-3; type: cell-based, human; conditions: for IC50: Homo sapiens; for concentration at which antiproliferative activity (decrease in the number of cells) was evident: SK-OV-3, SRB assay, 0.1–30 µM
Procedure: This study used ovarian cancer cell lines, which are part of the panel of cell lines used as part of the NCI-60 Human Cell Lines Screen program, characterized by overexpression of the c-erbB2/neu (HER2) receptor [62, 63]. The human ovarian cancer cell lines (SK-OV-3 and OVCAR-3) were purchased from the American Type Culture Collection (ATCC®, Manassas, Virginia, USA). SK-OV-3 cells (ATCC No. HTB-77™) were cultured in McCoy’s 5A medium containing D-glucose (3 g/L), L-glutamine (0.219 g/L), and sodium bicarbonate (2.2 g/L) supplemented with 10% fetal bovine serum, 10 mM HEPES (pH 7.3–7.5), 100 U/mL penicillin, and 100 μg/mL streptomycin (all from Sigma Aldrich).
as §3, §4

[4] = system: human melanoma cell line A2058; parameters: method as in PMID 28100848; conditions: A2058, 3 μM; cited from earlier work
[5] = system: human melanoma cell line C32; parameters: method as in PMID 28100848; conditions: C32, 3 μM; cited from earlier work
[6] = system: 18Co normal myofibroblasts; test: SRB cell proliferation assay, 18Co normal myofibroblasts; type: cell-based
Procedure: Next, 18Co cells (ATCC No. CRL-1459™) were cultured in MEM medium containing HEPES buffer, 10% fetal bovine serum, 100 U/mL penicillin, and 100 μg/mL streptomycin (all from Sigma Aldrich).
as §3, §4

[7] = system: SK-OV-3 cells; test: TMRM analysis of mitochondrial membrane potential; type: cell-based, human; conditions: SK-OV-3, 3 h, 30 µM
Procedure: Tetramethylrhodamine methyl ester (Sigma Aldrich) was used for the assessment of changes in the transmembrane potential of mitochondria. TMRM is a fluorescent cationic dye accumulating in mitochondria in a potential-dependent manner. Cell cultures were prepared as described above for acridine orange staining. Cells were exposed to test solutions for 3 h, and then TMRM was added (final concentration 100 nM) followed by incubation for 30 min in the CO2 incubator. Prior to observation, the plates were centrifuged (250× g, 5 min), and the medium was changed to PBS. The cells were analyzed under the Nikon Eclipse TS-100F microscope and photographed.

[8] = system: SK-OV-3 cells; test: LDH release assay, SK-OV-3; type: cell-based, human; conditions: SK-OV-3, 24 h, all concentrations (3, 10, 30 μM)
Procedure: (§5) In order to evaluate the cytotoxic effect, the release of LDH into the culture medium using the In Vitro Toxicology Assay Kit, Lactic Dehydrogenase Based (TOX7; Sigma Aldrich) was assessed. SK-OV-3 and OVCAR-3 cells were plated and cultured in 96-well plates (Greiner Bio-One) at the initial density of 5 × 10^3 cells per well in 100 µL of culture medium. The density of the cells was determined in the same manner as in the SRB assay. After 24 h, the media were replaced with the working solutions, which contained appropriate test compounds at concentrations of 3 μM, 10 μM, 30 μM, and control medium (0.2% DMSO). Cells were exposed to the test substances for 24 h. The background control comprised wells without cells with only control medium. To determine the maximal LDH release (high control), half of the control cultures were treated with lysis buffer. Wells with untreated cells were used as the low control of the assay. LDH activity in media was assessed according to the manufacturer’s protocol. The absorbance was measured at wavelengths of 490 nm and 690 nm (background), and the percentage of released enzyme was calculated for cells growing in the presence of compounds according to the formula:Cytotoxicity [%] = [(AT − AL)/(AH − AL)] × 100 where AT is the absorbance of treated wells; AL is low control; and AH is high control (maximal LDH release).
(§6) Cytotoxicity was expressed as a percentage of the released LDH calculated according to the difference between the absorbance of the treated and low control wells divided by the difference between the absorbance of the high control and low control wells.

[9] = system: OVCAR-3 cells; test: LDH release assay, OVCAR-3; type: cell-based, human; conditions: OVCAR-3, 24 h
Procedure: as §5, §6

[10] = system: OVCAR-3 cells; test: DNA fragmentation assay (Cell Death Detection ELISA, cytoplasmic fraction), OVCAR-3; type: cell-based, human; conditions: OVCAR-3, 24 h, 3, 10, 30 µM, among the betulin derivatives
Procedure: as §1, §2

[11] = 72 h, OVCAR-3, 3 days treatment, SRB assay, read-out: IC50
[12] = 120 h, OVCAR-3, 5 days treatment, SRB assay, read-out: IC50
[13] = 72 h, SK-OV-3, 3 days treatment, SRB assay, read-out: IC50
[14] = 120 h, SK-OV-3, 5 days treatment, SRB assay, read-out: IC50
[15] = 18Co, 3 days treatment, Neg: negative in the concentration used
[16] = 18Co, 5 days treatment, Neg: negative in the concentration used

| SMILES | IC50 [2, 11] | IC50 [2, 12] | concentration at which antiproliferative activity (decrease in the number of cells) was evident [2] | IC50 [3, 13] | IC50 [3, 14] | concentration at which antiproliferative activity (decrease in the number of cells) was evident [3] | IC50 [6, 15] | IC50 [6, 16] | IC50 ([2]; OVCAR-3, 72 h) | IC50 ([2]; OVCAR-3, 120 h) | IC50 ([3]; SK-OV-3, 72 h) | IC50 ([3]; SK-OV-3, 120 h) | also measured |
| --- | --- | --- | --- | --- | --- | --- | --- | --- | --- | --- | --- | --- | --- |
| C#CC(=O)OC[C@]12CC[C@@H](C(=C)C)[C@@H]1[C@H]1CC[C@@H]3[C@@]4(C)CC[C@H](O)C(C)(C)[C@@H]4CC[C@@]3(C)[C@]1(C)CC2 [Compound 2, 28-O-propynoylbetulin] | 160 nM | 190 nM | ≥ 0.3 µM | 180 nM | 200 nM | ≥ 0.3 µM | Neg | Neg |  |  |  |  | DNA fragmentation (enrichment factor, internucleosomal DNA fragments) [1]: moderate increases; inhibition of proliferation [4]: strong inhibition; inhibition of proliferation [5]: strong inhibition; mitochondrial membrane potential (TMRM fluorescence) [7]: reduced the mitochondrial membrane potential |
| CC(=O)O[C@H]1C(=O)[C@@]2(C)[C@H]([C@H](OC(=O)c3ccccc3)[C@]3(O)C[C@H](OC(=O)[C@H](O)[C@@H](NC(=O)c4ccccc4)c4ccccc4)C(C)=C1C3(C)C)[C@]1(OC(C)=O)CO[C@@H]1C[C@@H]2O [PTX, Paclitaxel, reference compound] | 4.49 nM | 2.97 nM |  | 4.39 nM | 5.65 nM |  | Neg |  |  |  |  |  | IC50 ([6]; 120 h, 18Co, 5 days treatment, Neg: negative in the concentration used, read-out: IC50): 14.8 nM |
| C#CC(=O)OC[C@]12CC[C@@H](C(=C)COP(=O)(OCC)OCC)C1C1CCC3[C@@]4(C)CC[C@H](O)C(C)(C)C4CC[C@@]3(C)[C@]1(C)CC2 (stereo partly shown) [Compound 5, 30-diethoxyphosphoryloxy-28-O-propynoylbetulin] |  |  | 1 µM |  |  | 1 µM | Neg | Neg | 540 nM | 600 nM | 280 nM | 290 nM | cytotoxicity (released LDH) [8]: strong cytotoxic effect; cytotoxicity (released LDH) ([9]; all concentrations (3, 10, 30 μM)): significant cytotoxic activity |
| C#CC(=O)O[C@H]1CC[C@@]2(C)C(CC[C@]3(C)C2CCC2C4[C@H](C(=C)C)CC[C@]4(COP(=O)(OCC)OCC)CC[C@]23C)C1(C)C (stereo partly shown) [Compound 4, 28-O-diethoxyphosphoryl-3-O-propynoylbetulin] |  |  | > 3 µM |  |  |  |  |  | 1880 nM | 1450 nM | 1080 nM | 1330 nM | DNA fragmentation (enrichment factor) [10]: greatest effect; cytotoxicity (released LDH), loss of cell membrane integrity ([9]; 10 μM and 30 μM): loss of cell membrane integrity was also confirmed; IC50 ([6]; 72 h): 9470 nM; IC50 ([6]; 120 h): 23700 nM |
